Test results taken from patent US8110686B2 (Chugai Seiyaki Kabushiki Kaisha, priority 2001, dated 2012).
pIC50: −log10 of the molar value.

Experiments:
[1] = molecular target: T1, malonyl-CoA decarboxylase prepared from rat heart (Rattus norvegicus, UniProt Q920F5); assay: In vitro MCD inhibitory assay (spectrophotometric, 96 well); format: biochemical; details: read-out: IC50 of the MCD inhibitors
T1 construct: malonyl-CoA decarboxylase prepared from rat heart; from tissue; host or cells: rat heart
T1 sequence (Q920F5 39-492): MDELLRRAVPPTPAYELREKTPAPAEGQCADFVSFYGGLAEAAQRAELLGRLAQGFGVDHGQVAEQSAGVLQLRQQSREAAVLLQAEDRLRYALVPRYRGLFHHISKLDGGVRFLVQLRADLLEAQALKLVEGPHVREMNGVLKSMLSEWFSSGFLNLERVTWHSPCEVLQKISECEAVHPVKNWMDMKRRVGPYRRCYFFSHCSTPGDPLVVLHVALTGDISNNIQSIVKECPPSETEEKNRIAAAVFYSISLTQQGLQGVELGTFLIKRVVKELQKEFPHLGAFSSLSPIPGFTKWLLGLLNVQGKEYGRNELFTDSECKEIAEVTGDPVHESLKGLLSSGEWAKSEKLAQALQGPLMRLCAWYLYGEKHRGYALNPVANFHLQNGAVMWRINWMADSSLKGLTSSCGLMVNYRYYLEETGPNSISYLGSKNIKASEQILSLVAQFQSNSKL
Protocol: The following reagents are added into a 96 well titer plate: Tris-HCl buffer, 20 μL; DTE, 10 μL; l-malate, 20 μL; NAD, 10 μL; NADH, 25 μL; water, 80 μL; malic dehydrogenase, 5 μL. The contents are mixed and incubated for 2 min followed by the addition of 5 μL of citrate synthase. […] The content is incubated and absorbence at […] is measured.
Active compounds are characterized by the concentration of the compound that caused 50% inhibition of MCD activity (IC50).

[2] = tested on: isolated working hearts from male Sprague-Dawley rats; assay: Glucose oxidation and fatty acid oxidation measurement in the perfused rat heart; details: isolated perfused rat heart assay; versus ranolazine or trimetazidine
Protocol: Isolated working hearts from male Sprague-Dawley rats are subjected to a 60-minute aerobic perfusion period with a modified Krebs-Henseleit solution containing 5 mmol/L glucose; 100 μU/mL insulin; 3% BAS; and 1.2 mmol/L palmitate. Working hearts are used in these studies to approximate the metabolic demand of the heart seen in vivo. (Kantor et al., Circulation Research 86:580-588 (2000)). The test compound is added 5 minutes into the perfusion period.
Glucose oxidation rates are determined by the quantitative collection of ^14CO2 produced by hearts perfused with buffer containing […]. Rates of fatty acid oxidation are determined by the quantitative collection of ^14CO2 produced by hearts perfused with buffer containing [^14C]palmitate (McNeill, J. H. in “Measurement of cardiovascular function”, chapter 2, CRC press, New York (1997)).
Active compounds are characterized by an increase in glucose oxidation as compared to control experiment (DMSO). The compounds that caused statistically significant increases in glucose oxidation are considered to be active. The preferred compounds cause statistically significant increases in glucose oxidation at 20 μM. Statistical significance was calculated using the Student's t test for paired or unpaired samples, as appropriate. The results with P<0.05 are considered to be statistically significant.

SMILES | pIC50 [1] | melting point [°C] | effects in metabolism shift compared with known metabolism modulators [2]
CC(C)N(C(=O)Oc1ccc(Cl)cc1)c1ccc2nc(S)sc2c1 [Table 4; entry 4] | 7.12 |  | 
CC(C)N(C(=O)OCCOCc1ccccc1)c1ccc2nc(S)sc2c1 [Table 4; entry 6] | 5.79 |  | 
O=C1CNC(=S)N1c1ccc2nc(S)sc2c1 [Table 5; entry 1, 3-(2-mercapto-1,3-benzothiazol-6-yl)-2-thioxoimidazolidin-4-one] |  | > 266 | 
CCCCOc1ccc(NC(=O)N(CC)c2ccc3nc(S)sc3n2)cc1 [Table 7; entry 1, 3-(4-butoxy-phenyl)-1-ethyl-1-(2-mercapto-thiazolo[5,4-b]pyridin-5-yl)-urea] | 7.21 | 134.3 to 135 | 
CCN(C(=O)COc1ccccc1)c1ccc2nc(S)sc2n1 [Table 8; entry 1, N-ethyl-N-(2-mercapto-thiazolo[5,4-b]pyridin-5-yl)-2-phenoxy-acetamide] | 7.01 | 107.5 to 109 | 

Further lines, with some results ahead:

pIC50 [1] | melting point [°C] | SMILES | effects in metabolism shift compared with known metabolism modulators [2]
7.51 |  | CC(C)CN(C(=O)Nc1ccc(C(F)(F)F)cc1)c1ccc2nc(S)sc2c1 [Table 3; entry 1, N-(2-mercapto-1,3-benzothiazol-6-yl)-N-(2-methylpropyl)-N′-[4-(trifluoromethyl)phenyl]urea] | 
7.03 |  | CC(C)CN(C(=O)Nc1ccc(C#N)cc1)c1ccc2nc(S)sc2c1 [Table 3; entry 3] | 
7.64 |  | CC(C)N(C(=O)Nc1ccc(C(F)(F)F)cc1)c1ccc2nc(S)sc2c1 [Table 3; entry 16] | more profound effects in metabolism shift than the known metabolism modulators such as ranolazine or trimetazidine
7.38 |  | CC(C)N(C(=O)Nc1ccc(CC(=O)O)cc1)c1ccc2nc(S)sc2c1 [Table 3; entry 17] | 
7.28 |  | CC(C)N(C(=O)Nc1ccc(C(F)(F)F)cc1)c1ccc2nc(S)sc2n1 [Table 7; entry 8] | 
7.60 |  | CC(C)N(C(=O)c1ccc(C(F)(F)F)cc1)c1ccc2nc(S)sc2n1 [Table 8; entry 7] | more profound effects in metabolism shift than the known metabolism modulators such as ranolazine or trimetazidine
